# Test results: US6558900B2, “Regulation of apoptosis and in vitro model for studies thereof” (Emory University, priority 1996, dated 2003)
# Entries after “also recorded” stand apart in the source; their conditions may differ. Structures can show the parent of a compound that is named as a salt.
# What was measured:
# variety of cell types = conditions: cited from earlier work
# CPP32 [1] = test: Apaf-2 activity: recombining with phosphocellulose flow through fraction (Apaf-1) and 35S-labeled CPP32; format: biochemical, human; conditions: 0.2 μg protein with phosphocellulose flowthrough fraction, 1 mM dATP
# Procedure: FIG. 3 illustrates fractionation and reconstitution of dATP-dependent activation of CPP32 by phosphocellulose chromatography. HeLa cell S-100 was subjected to phosphocellulose chromatography and the column flow through and bound material were collected as described in the Examples. Aliquots (10 μl) of HeLa S-100 (50 μg) (lanes 1 and 2), phosphocellulose flow through fraction (PC-FT) (lanes 3 and 4), phosphocellulose bound fraction (PC-B) (lanes 5 and 6), and the mixture of phosphocellulose flow through and bound material (lanes 7 and 8) were incubated with aliquots of 3 μl in vitro translated, ^35S-labeled CPP32 at 30° C. for 1 hr in the absence (lanes 1,3,5,7) or presence (lanes 2,4,6,8) of 1 mM dATP. The samples were subjected to SDS-PAGE, transferred to a nitrocellulose filter, and the filter was exposed to film for 16 hours at room temperature.
# The Apaf-2 activity that bound to the phosphocellulose column was purified through the Mono S column as described in Example 7. […] In FIG. 4B, aliquots (30 μl) of the Mono-S fractions were subjected to 15% SDS-PAGE and the proteins were visualized by silver staining.
# Aliquots of 0.2 μg of Apaf-2 purified through the Mono S column (lanes 1, 2), cytochrome c from bovine heart (lanes 3, 4), and rat liver (lanes 5, 6) were incubated with aliquots of 10 μl phosphocellulose flowthrough fraction and 3 μl in vitro translated, 35S-labeled CPP32 at 30° C. for 1 hr in a final volume of 20 μl buffer A in the absence (lanes 1,3,5) or presence of (lanes 2, 4, 6) 1 mM dATP. Samples were subjected to SDS-PAGE and transferred to a nitrocellulose filter which was then exposed to a film for 16 hr at room temperature.
# To isolate the protein(s) required for the activation of CPP32, HeLa S-100 was loaded onto a phosphocellulose column, and the flow-through and bound fractions were collected. […] When the flowthrough and bound fractions were mixed, CPP32-activating activity was restored (lanes 7-8). […] The factor(s) that flow through the phosphocellulose column are designated apoptotic protease activating factor-1 (Apaf-1) and the factor that bound to the column is designated apoptotic protease activating factor-2 (Apaf-2). It is understood that “Apaf-1” may represent more than one protein or it may represent a combination of protein(s) and other factors.
# Apaf-2 activity was assayed by recombining with Apaf-1 after purification by the following steps. First, the Apaf-2 fraction was subjected to 50% ammonium sulfate precipitation. All of the activity remained in the supernatant while most of the protein precipitated (Table I). The supernatant was loaded onto a phenyl-sepharose (hydrophobic interaction) column and the activity was eluted with 1 M ammonium sulfate. The eluate was passed through a gel filtration column; active fractions were subjected to sequential Mono Q (anion exchange) and Mono S (cation exchange) chromatography. The Apaf-2 activity flowed through the Mono Q column, and the flow through was directly loaded onto the Mono S column. Bound Apaf-2 activity was then eluted with a 100-300 mM NaCl linear salt gradient. The fractions from the Mono S column were collected and assayed. […] The active fractions were analyzed by SDS-PAGE (FIG. 4B). A protein of apparent molecular mass of 15 kDa was co-eluted with the activity. No other proteins were detected by silver staining in the active Apaf-2 fractions.
# CPP32 was translated and purified as described above. […]
# hamster liver nuclei = test: Reconstitution of DNA fragmentation and nuclear morphological change in HeLa S-100 immunodepleted of cytochrome c; format: biochemical; conditions: 1 μg added to immunodepleted HeLa S-100, 1 mM dATP
# Procedure: (§1) Cytochrome c present in the HeLa cell S-100 was immunodepleted as described in the Example 10. In FIG. 7A, 10 μl aliquots of HeLa S-100 (50 μg) (lanes 1 and 2), or 10 μl aliquots of HeLa S-100 immunodepleted of cytochrome c (lanes 3 and 4), or 10 μl of HeLa S-100 immunodepleted of cytochrome c supplemented with 0.2 μg Apaf-2 purified through the Mono S column (H) (lanes 5 and 6), bovine heart cytochrome c (B) (lanes 7 and 8), or rat liver cytochrome c (R) (lanes 9 and 10), were incubated with aliquots of 3 μl in vitro translated, ^35S-labeled CPP32 in the absence (lanes 1, 3, 5, 7, 9) or presence (lanes 2, 4, 6, 8, 10) of 1 mM dATP at 30° C. for 1 hr in a final reaction volume of 20 μl of buffer A. Samples were subjected to SDS-PAGE and transferred to a nitrocellulose filter which were then exposed to film for 16 hr at room temperature. In FIG. 7B, HeLa S-100 (50 μg) immunodepleted of cytochrome c were reconstituted with the indicated amount of Apaf-2 (purified through Mono S column step) in a CPP32 cleavage reaction as described in FIG. 7A. The cleaved products (p20) were quantified in a Fuji-1000 phosphorimager machine and plotted in comparison with that generated by HeLa S-100. In FIG. 7C, aliquots of 50 μl of HeLa S-100 (250 μg) (lanes 1 and 2), or 50 μl of HeLa S-100 immunodepleted of cytochrome c (lanes 3 and 4), or 50 μl of HeLa S-100 immunodepleted of cytochrome c supplemented with 1 μg apaf-2 purified through the Mono S column (H) (lanes 5 and 6), bovine heart cytochrome c (B) (lanes 7 and 8), or rat liver cytochrome c (R) (lanes 9 and 10), were incubated with aliquots of 6 μl hamster liver nuclei in the absence (lanes 1, 3, 5, 7, 9) or presence (lanes 2, 4, 6, 8, 10) of 1 mM dATP at 37° C. for 2 hr in a final reaction volume of 60 μl. The DNA were isolated as described in the Examples, analyzed on 2% agarose gel electrophoresis, and the DNA was visualized by ethidium bromide staining. In FIG. 7D, DNA fragmentation assays were carried out as in FIG. 7C using HeLa S-100 immunodepleted of cytochrome c alone (a,b) or supplemented with Apaf-2 purified through Mono S column step (c,d) in the absence (a,c) or presence of 1 mM dATP (b,d). After 2 hr incubation at 37° C., an aliquot of each reaction (30 μl) was stained with 4′,6′-diamidino-2-phenylindole (DAPI), and observed under a fluorescence microscope with a UV-2A combination filter.
# To rule out the possibility that the Apaf-2 activity is due to a minor contaminating protein that co-purified with cytochrome c, an immunodepletion experiment was carried out using a monoclonal antibody against rat cytochrome c. This monoclonal antibody cross-reacts with purified Apaf-2. […]
# CPP32 [2] = test: Reconstitution of dATP-dependent CPP32 activation in HeLa S-100 immunodepleted of cytochrome c; format: biochemical, human; conditions: 0.2 μg added to immunodepleted HeLa S-100, 1 mM dATP
# Procedure: as §1
# To rule out the possibility that the Apaf-2 activity is due to a minor contaminating protein that co-purified with cytochrome c, an immunodepletion experiment was carried out using a monoclonal antibody against rat cytochrome c. This monoclonal antibody cross-reacts with purified Apaf-2. As shown in FIGS. 7A-7D, HeLa cell S-100 depleted of cytochrome c using the monoclonal anti-cytochrome c antibody lost the dATP-dependent activation of CPP32 and the ability to induce DNA fragmentation in the added nuclei (FIGS. 7A and 7C, lanes 3 and 4). Adding back either the purified Apaf-2 from HeLa cells or the commercial cytochrome c from bovine heart or rat liver to the immunodepleted extracts restored the dATP-dependent activation of CPP32 and DNA fragmentation (FIGS. 7A and 7C, lanes 5-10). The reconstitution of cytochrome c dependent-activation of CPP32 was evident with the addition of 0.01 μg (33 nM) of purified cytochrome c to the cytochrome c-depleted extracts (FIG. 7B).
# CPP32 was translated and purified as described above. Aliquot of 3 μl of the in vitro translated CPP32 was incubated with the indicated protein fraction, nucleotides, and 1 mM additional MgCl2 at 30° C. for 1 hour in a final volume of 20 μl of buffer A. At the end of the incubation, 7 μl of 4×SDS sample buffer was added to each reaction. After boiling for 3 min, each sample was subjected to a 15% SDS-polyacrylamide gel electrophoresis (SDS-PAGE). The gel was transferred to a nitrocellulose filter which was subsequently exposed to a Kodak X-OMAT AR X-ray film (Eastman Kodak, Rochester, N.Y.) for 16 hr at room temperature. […]
Molecule,initiation of apoptosis (variety of cell types),Apaf-2 activity (dATP-dependent activation of CPP32) (CPP32 [1]),restoration of DNA fragmentation (hamster liver nuclei),restoration of dATP-dependent activation of CPP32 (CPP32 [2])
O=C1c2c(O)ccc(O)c2C(=O)c2c(NCCNCCO)ccc(NCCNCCO)c21 [mitoxantrone HCl],act to initiate apoptosis,–,–,–
COc1cc([C@@H]2c3cc4c(cc3[C@@H](O[C@@H]3O[C@@H]5CO[C@@H](C)O[C@H]5[C@H](O)[C@H]3O)[C@H]3COC(=O)[C@H]23)OCO4)cc(OC)c1O [etoposide],act to initiate apoptosis,–,–,–
bovine heart cytochrome c: commercial cytochrome c from bovine heart (Sigma),–,have Apaf-2 activity; also recorded: initiated dATP-dependent activation of CPP32 as efficiently as Apaf-2,restored,restored
rat liver cytochrome c: commercial cytochrome c from rat liver (Sigma),–,have Apaf-2 activity; also recorded: initiated dATP-dependent activation of CPP32 as efficiently as Apaf-2,restored,restored
